Assay results: US20240366770A1, “DEGRADATION OF BRUTON'S TYROSINE KINASE (BTK) BY CONJUGATION OF BTK INHIBITORS WITH E3 LIGASE LIGAND AND METHODS OF USE” (BeiGene Switzerland GmbH, priority 2021, published 2024)
Like-named read-outs stand apart in the source and are kept apart here.

What was measured:
HEK-293 cells = test: HEK-293 cytotoxicity detection (CellTiter-Glo); type: cell-based; details: HEK-293 cells, 72 h incubation, CellTiter-Glo luminescence, IC50 of cell proliferation inhibition, read-out: HEK293
Outline: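 HEK-293 cells exposed 72 h to an 8-point, 4-fold dilution series (top 500× stock 5 mM in DMSO; 0.2% DMSO final). Viability by CellTiter-Glo luminescence after 10 min at room temperature; IC50 from four-parameter Hill fit of percent inhibition.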

BTK = target: T1, BTK (Homo sapiens, UniProt Q06187); test: BTK degradation in TMD-8 cells (HTRF assay); type: cell-based; details: 6 h treatment, IC50 (DC50) of BTK degradation
T1 construct: High control=Cell group with added DMSO and without compound, indicating microplate readings without BTK degradation; endogenous in cells; host or cells: TMD-8
T1 sequence (Q06187 whole entry): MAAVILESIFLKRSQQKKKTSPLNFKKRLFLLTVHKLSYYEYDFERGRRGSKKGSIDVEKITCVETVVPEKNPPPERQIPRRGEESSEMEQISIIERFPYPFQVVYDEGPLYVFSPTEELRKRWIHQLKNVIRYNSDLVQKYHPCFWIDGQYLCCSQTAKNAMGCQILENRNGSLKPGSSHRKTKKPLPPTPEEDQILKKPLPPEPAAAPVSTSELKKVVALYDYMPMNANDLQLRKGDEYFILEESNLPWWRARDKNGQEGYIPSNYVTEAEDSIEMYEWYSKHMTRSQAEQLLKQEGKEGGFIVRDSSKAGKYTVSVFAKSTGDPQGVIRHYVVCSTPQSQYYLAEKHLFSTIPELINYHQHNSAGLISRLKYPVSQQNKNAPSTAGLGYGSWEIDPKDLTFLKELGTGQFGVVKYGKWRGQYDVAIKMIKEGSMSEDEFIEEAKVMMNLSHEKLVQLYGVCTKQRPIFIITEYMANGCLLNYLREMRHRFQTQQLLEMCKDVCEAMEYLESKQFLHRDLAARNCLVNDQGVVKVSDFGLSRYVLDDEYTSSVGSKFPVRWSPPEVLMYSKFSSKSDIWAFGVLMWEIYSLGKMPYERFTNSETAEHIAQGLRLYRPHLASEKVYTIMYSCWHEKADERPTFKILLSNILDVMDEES
Outline: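 TMD-8 cells were exposed for 6 h to 8 compound doses (6-fold serial dilution, 0.2% DMSO). Lysed cells were incubated overnight at room temperature with HTRF antibodies and read at 665/620 nm. DC50 came from four-parameter fitting of % inhibition versus concentration.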

Compound | DC50 (BTK) [nM] | IC50 (HEK-293 cells; Homo sapiens) [nM] | IC50 (HEK-293 cells) [nM]
Cc1cc(-c2ncnc3[nH]c4cc(N5CCC6(CCN(CC7CCN(c8ccc(N9CCC(=O)NC9=O)cc8)CC7)C6)CC5)ccc4c23)ccc1[C@@H](C)NC(=O)c1nc(C(C)(C)C)no1 [Example 100, (R)-3-(tert-butyl)-N-(1-(4-(7-(2-((1-(4-(2,4-dioxotetrahydropyrimidin-1(2H)-yl)phenyl)piperidin-4-yl)methyl)-2,8-diazaspiro[4.5]decan-8-yl)-9H-pyrimido[4,5-b]indol-4-yl)-2-methylphenyl)ethyl)-1,2,4-oxadiazole-5-carboxamide] | 1.02 | 3420 | 
Cc1cc(-c2ncnc3[nH]c4cc(N5CCC6(CC5)CCN(C5CC(c7ccc(NC8CCC(=O)NC8=O)cc7)C5)C6)ccc4c23)ccc1[C@@H](C)NC(=O)c1nc(C(C)(C)C)no1 (stereo partly drawn) [Example 103, 3-(tert-butyl)-N-((1R)-1-(4-(7-(2-(3-(4-((2,6-dioxopiperidin-3-yl)amino)phenyl)cyclobutyl)-2,8-diazaspiro[4.5]decan-8-yl)-9H-pyrimido[4,5-b]indol-4-yl)-2-methylphenyl)ethyl)-1,2,4-oxadiazole-5-carboxamide] | 3.05 | 1060 | 
Cc1cc(-c2ncnc3[nH]c4cc(CCN5CCN(C6CN(c7ccc(N8CCC(=O)NC8=O)cc7)C6)CC5)ccc4c23)ccc1[C@@H](C)NC(=O)c1nc(C(C)(C)C)no1 [Example 105, (R)-3-(tert-butyl)-N-(1-(4-(7-(2-(4-(1-(4-(2,4-dioxotetrahydropyrimidin-1(2H)-yl)phenyl)azetidin-3-yl)piperazin-1-yl)ethyl)-9H-pyrimido[4,5-b]indol-4-yl)-2-methylphenyl)ethyl)-1,2,4-oxadiazole-5-carboxamide] | 0.512 | > 10000 | 
Cc1cc(-c2ncnc3[nH]c4cc(N5CCC6(CC5)CCN(C5CC(c7ccc(N[C@@H]8CCC(=O)NC8=O)cc7)C5)CC6)ccc4c23)ccc1[C@@H](C)NC(=O)c1nc(C(C)(C)C)no1 (stereo partly drawn) [Example 107, 3-(tert-butyl)-N—((R)-1-(4-(7-(9-((1S,3r)-3-(4-(((S)-2,6-dioxopiperidin-3-yl)amino)phenyl)cyclobutyl)-3,9-diazaspiro[5.5]undecan-3-yl)-9H-pyrimido[4,5-b]indol-4-yl)-2-methylphenyl)ethyl)-1,2,4-oxadiazole-5-carboxamide] | 2.99 |  | 1030
Cc1cc(-c2ncnc3[nH]c4cc(N5CCC6(CC5)CCN([C@H]5C[C@H](c7ccc([C@@H]8CCC(=O)NC8=O)cc7)C5)CC6)ccc4c23)ccc1[C@@H](C)NC(=O)c1nc(C(C)(C)C)no1 [Example 110, 3-(tert-butyl)-N—((R)-1-(4-(7-(9-((1S,3r)-3-(4-((S)-2,6-dioxopiperidin-3-yl)phenyl)cyclobutyl)-3,9-diazaspiro[5.5]undecan-3-yl)-9H-pyrimido[4,5-b]indol-4-yl)-2-methylphenyl)ethyl)-1,2,4-oxadiazole-5-carboxamide] | 1.25 | 2000 | 
Cc1cc(-c2ncnc3[nH]c4cc(N5CCC6(CC5)CCN([C@H]5C[C@@H](c7ccc([C@@H]8CCC(=O)NC8=O)cc7)C5)CC6)ccc4c23)ccc1[C@@H](C)NC(=O)c1nc(C(C)(C)C)no1 [Example 111, 3-(tert-butyl)-N—((R)-1-(4-(7-(9-((1R,3s)-3-(4-((S)-2,6-dioxopiperidin-3-yl)phenyl)cyclobutyl)-3,9-diazaspiro[5.5]undecan-3-yl)-9H-pyrimido[4,5-b]indol-4-yl)-2-methylphenyl)ethyl)-1,2,4-oxadiazole-5-carboxamide] | 2.89 | 1370 | 
Cc1cc(-c2ncnc3[nH]c4cc(N5CCC6(CC5)CCN([C@H]5C[C@H](c7ccc([C@H]8CCC(=O)NC8=O)cc7)C5)CC6)ccc4c23)ccc1[C@@H](C)NC(=O)c1nc(C(C)(C)C)no1 [Example 112, 3-(tert-butyl)-N—((R)-1-(4-(7-(9-((1R,3r)-3-(4-((R)-2,6-dioxopiperidin-3-yl)phenyl)cyclobutyl)-3,9-diazaspiro[5.5]undecan-3-yl)-9H-pyrimido[4,5-b]indol-4-yl)-2-methylphenyl)ethyl)-1,2,4-oxadiazole-5-carboxamide] | 2.47 | 1890 | 

Now from value to compound, other results behind:

DC50 (BTK) [nM] | Compound | IC50 (HEK-293 cells; Homo sapiens) [nM] | IC50 (HEK-293 cells) [nM]
0.49 | COc1cc2c(cc1N1CCN([C@H]3C[C@@H](c4ccc(N[C@H]5CCC(=O)NC5=O)cc4)C3)CC1)[nH]c1ncnc(-c3cc(C)c([C@@H](C)NC(=O)c4nc(C5(C)CC5)no4)cc3F)c12 [Example 95, N—((R)-1-(4-(7-(4-((1R,3s)-3-(4-(((S)-2,6-dioxopiperidin-3-yl)amino)phenyl)cyclobutyl)piperazin-1-yl)-6-methoxy-9H-pyrimido[4,5-b]indol-4-yl)-5-fluoro-2-methylphenyl)ethyl)-3-(1-methylcyclopropyl)-1,2,4-oxadiazole-5-carboxamide] | > 10000 | 
2.98 | Cc1cc(-c2ncnc3[nH]c4cc(N5CCN(C6CC(c7ccc([C@H]8CCC(=O)NC8=O)cc7)C6)CC5)ccc4c23)c(F)cc1[C@@H](C)NC(=O)c1nc(C2(C)CC2)no1 (stereo partly drawn) [Example 96, N—((R)-1-(4-(7-(4-(3-(4-((R)-2,6-dioxopiperidin-3-yl)phenyl)cyclobutyl)piperazin-1-yl)-9H-pyrimido[4,5-b]indol-4-yl)-5-fluoro-2-methylphenyl)ethyl)-3-(1-methylcyclopropyl)-1,2,4-oxadiazole-5-carboxamide] | > 10000 | 
1.97 | Cc1c([C@@H](C)NC(=O)c2noc(C(C)(C)C)n2)ccc(-c2ncnc3[nH]c4cc(N5CCN(CC6CCN(Cc7ccc8c(c7)C(C)(C)C(=O)N8C7CCC(=O)NC7=O)CC6)CC5)ccc4c23)c1F (stereo partly drawn) [Example 98, 5-(tert-butyl)-N-((1R)-1-(4-(7-(4-((1-((1-(2,6-dioxopiperidin-3-yl)-3,3-dimethyl-2-oxoindolin-5-yl)methyl)piperidin-4-yl)methyl)piperazin-1-yl)-9H-pyrimido[4,5-b]indol-4-yl)-3-fluoro-2-methylphenyl)ethyl)-1,2,4-oxadiazole-3-carboxamide] | 7280 | 
4.88 | Cc1cc(-c2ncnc3[nH]c4cc(N5CCC6(CC5)CCN(C5CC(c7ccc([C@H]8CCC(=O)NC8=O)cc7)C5)C6)ccc4c23)ccc1[C@@H](C)NC(=O)c1nc(C(C)(C)C)no1 (stereo partly drawn) [Example 102, 3-(tert-butyl)-N—((R)-1-(4-(7-(2-(3-(4-((R)-2,6-dioxopiperidin-3-yl)phenyl)cyclobutyl)-2,8-diazaspiro[4.5]decan-8-yl)-9H-pyrimido[4,5-b]indol-4-yl)-2-methylphenyl)ethyl)-1,2,4-oxadiazole-5-carboxamide] | 1020 | 
1.16 | Cc1cc(-c2ncnc3[nH]c4cc(CN5CCN(CC6CCN(c7ccc(N8CCC(=O)NC8=O)cc7)CC6)CC5)ccc4c23)ccc1[C@@H](C)NC(=O)c1nc(C(C)(C)C)no1 [Example 104, (R)-3-(tert-butyl)-N-(1-(4-(7-((4-((1-(4-(2,4-dioxotetrahydropyrimidin-1(2H)-yl)phenyl)piperidin-4-yl)methyl)piperazin-1-yl)methyl)-9H-pyrimido[4,5-b]indol-4-yl)-2-methylphenyl)ethyl)-1,2,4-oxadiazole-5-carboxamide] | > 10000 | 
0.324 | Cc1cc(-c2ncnc3[nH]c4cc(CCN5CCN(c6ccc(N7CCC(=O)NC7=O)cc6)CC5)ccc4c23)ccc1[C@@H](C)NC(=O)c1nc(C(C)(C)C)no1 [Example 106, (R)-3-(tert-butyl)-N-(1-(4-(7-(2-(4-(4-(2,4-dioxotetrahydropyrimidin-1(2H)-yl)phenyl)piperazin-1-yl)ethyl)-9H-pyrimido[4,5-b]indol-4-yl)-2-methylphenyl)ethyl)-1,2,4-oxadiazole-5-carboxamide] | > 10000 | 
2.64 | Cc1cc(-c2ncnc3[nH]c4cc(N5CCC6(CC5)CCN(C5CC(c7ccc(N[C@H]8CCC(=O)NC8=O)cc7)C5)CC6)ccc4c23)ccc1[C@@H](C)NC(=O)c1nc(C(C)(C)C)no1 (stereo partly drawn) [Example 108, 3-(tert-butyl)-N-((1R)-1-(4-(7-(9-((1s,3s)-3-(4-((2,6-dioxopiperidin-3-yl)amino)phenyl)cyclobutyl)-3,9-diazaspiro[5.5]undecan-3-yl)-9H-pyrimido[4,5-b]indol-4-yl)-2-methylphenyl)ethyl)-1,2,4-oxadiazole-5-carboxamide] |  | 949
6.07 | Cc1cc(-c2ncnc3[nH]c4cc(N5CCC6(CC5)CCN([C@H]5C[C@H](c7ccc(N[C@@H]8CCC(=O)NC8=O)cc7)C5)CC6)ccc4c23)ccc1[C@@H](C)NC(=O)c1nc(C(C)(C)C)no1 [Example 109, 3-(tert-butyl)-N—((R)-1-(4-(7-(9-((1R,3r)-3-(4-(((R)-2,6-dioxopiperidin-3-yl)amino)phenyl)cyclobutyl)-3,9-diazaspiro[5.5]undecan-3-yl)-9H-pyrimido[4,5-b]indol-4-yl)-2-methylphenyl)ethyl)-1,2,4-oxadiazole-5-carboxamide] | 1010 | 
3.46 | Cc1cc(-c2ncnc3[nH]c4cc(N5CCC6(CC5)CCN([C@H]5C[C@@H](c7ccc([C@H]8CCC(=O)NC8=O)cc7)C5)CC6)ccc4c23)ccc1[C@@H](C)NC(=O)c1nc(C(C)(C)C)no1 [Example 113, 3-(tert-butyl)-N—((R)-1-(4-(7-(9-((1S,3s)-3-(4-((R)-2,6-dioxopiperidin-3-yl)phenyl)cyclobutyl)-3,9-diazaspiro[5.5]undecan-3-yl)-9H-pyrimido[4,5-b]indol-4-yl)-2-methylphenyl)ethyl)-1,2,4-oxadiazole-5-carboxamide] | 1120 | 
